Results reported in ChEMBL document CHEMBL1134078, “Structure-based design, synthesis and SAR of a novel series of thiopheneamidine urokinase plasminogen activator inhibitors” (Bioorg Med Chem Lett, 2001).

What was measured:
[1] = biological target: Urokinase-type plasminogen activator (Homo sapiens, UniProt P00749)
Serine protease 1 = Serine protease 1 (Homo sapiens, UniProt P07477); experiment: Inhibitory activity against Trypsin
Prothrombin = Prothrombin (Homo sapiens, UniProt P00734); experiment: Inhibitory activity against Thrombin (no observable inhibition at this screening concentration)
[2] = biological target: Tissue-type plasminogen activator (Homo sapiens, UniProt P00750); experiment: Inhibitory activity against tissue plasminogen activator
Plasminogen = Plasminogen (Homo sapiens, UniProt P00747); experiment: Inhibitory activity against plasmin
Plasminogen, sequence (P00747 97-580 limits assumed): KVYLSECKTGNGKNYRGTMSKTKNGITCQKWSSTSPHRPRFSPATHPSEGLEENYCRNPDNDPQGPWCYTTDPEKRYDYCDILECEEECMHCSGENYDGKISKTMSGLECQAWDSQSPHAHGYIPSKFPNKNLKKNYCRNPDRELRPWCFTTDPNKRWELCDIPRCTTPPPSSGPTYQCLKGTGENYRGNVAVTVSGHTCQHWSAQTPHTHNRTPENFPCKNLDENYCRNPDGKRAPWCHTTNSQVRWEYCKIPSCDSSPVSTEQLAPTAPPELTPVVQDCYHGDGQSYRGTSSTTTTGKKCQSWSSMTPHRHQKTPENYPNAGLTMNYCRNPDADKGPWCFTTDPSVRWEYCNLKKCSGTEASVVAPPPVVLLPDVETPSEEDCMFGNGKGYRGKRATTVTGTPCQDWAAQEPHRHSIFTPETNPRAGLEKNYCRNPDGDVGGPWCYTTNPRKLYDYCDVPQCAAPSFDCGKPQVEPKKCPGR
Plasminogen, sequence (P00747 581-810 limits assumed): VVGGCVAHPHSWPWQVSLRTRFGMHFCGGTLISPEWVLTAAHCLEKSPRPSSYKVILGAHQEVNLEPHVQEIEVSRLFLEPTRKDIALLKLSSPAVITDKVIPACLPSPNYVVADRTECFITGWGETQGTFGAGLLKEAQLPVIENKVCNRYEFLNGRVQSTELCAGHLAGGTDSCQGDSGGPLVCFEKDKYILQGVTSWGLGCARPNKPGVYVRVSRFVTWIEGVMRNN

Serine protease 1, sequence (P07477 whole entry): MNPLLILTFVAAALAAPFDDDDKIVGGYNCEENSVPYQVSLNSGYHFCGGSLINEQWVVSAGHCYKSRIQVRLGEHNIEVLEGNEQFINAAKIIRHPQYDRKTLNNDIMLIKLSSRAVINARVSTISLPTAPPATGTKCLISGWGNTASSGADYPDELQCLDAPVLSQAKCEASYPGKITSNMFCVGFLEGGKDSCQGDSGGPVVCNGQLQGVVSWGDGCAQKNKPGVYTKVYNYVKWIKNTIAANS
Tissue-type plasminogen activator, sequence (P00750 whole entry): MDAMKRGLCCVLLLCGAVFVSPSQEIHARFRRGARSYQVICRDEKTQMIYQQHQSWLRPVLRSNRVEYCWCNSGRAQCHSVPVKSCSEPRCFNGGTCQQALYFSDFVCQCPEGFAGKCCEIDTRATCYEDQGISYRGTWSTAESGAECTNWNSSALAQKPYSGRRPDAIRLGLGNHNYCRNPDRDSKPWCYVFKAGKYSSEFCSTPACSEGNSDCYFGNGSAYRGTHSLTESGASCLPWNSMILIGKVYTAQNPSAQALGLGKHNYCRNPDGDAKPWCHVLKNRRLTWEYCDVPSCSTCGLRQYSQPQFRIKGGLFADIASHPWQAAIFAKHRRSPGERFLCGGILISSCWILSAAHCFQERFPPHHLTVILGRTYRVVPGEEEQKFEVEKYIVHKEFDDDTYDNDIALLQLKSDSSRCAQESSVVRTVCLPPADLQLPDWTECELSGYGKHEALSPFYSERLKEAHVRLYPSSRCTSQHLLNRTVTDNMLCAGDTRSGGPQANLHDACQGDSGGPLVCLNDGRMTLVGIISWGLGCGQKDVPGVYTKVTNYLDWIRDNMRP

Ki [1] [µM]	Structure (SMILES)	other results
277	CSc1sc(C(=N)N)cc1-c1nc(-c2ccccc2C)cs1	–
1740	CSc1sc(C(=N)N)cc1-c1nc(-c2ccc(-c3ccccc3)cc2)cs1	–
327	COc1ccc(-c2csc(-c3cc(C(=N)N)sc3SC)n2)cc1	–
141	CSc1sc(C(=N)N)cc1-c1nc(-c2csc3ccccc23)cs1	–
154	CSc1sc(C(=N)N)cc1-c1nc(-c2cccnc2Cl)cs1	–
47	CSc1sc(C(=N)N)cc1-c1nc(-c2cccc(NC(=O)c3ccc(F)cc3)c2)cs1	–
91	CSc1sc(C(=N)N)cc1-c1nc(-c2ccc3c(c2)OCO3)cs1	Ki (Serine protease 1): 0.88 µM; Ki (Prothrombin): > 29 µM; Ki [2]: 1.7 µM; Ki (Plasminogen): 10.8 µM
100	CSc1sc(C(=N)N)cc1-c1nc(-c2ccc3c(c2)OCCCO3)cs1	–
> 34	CSc1sc(C(=N)N)cc1-c1cccc(-c2ccccc2)c1	–
138	CSc1sc(C(=N)N)cc1-c1nc(-c2ccc3ccccc3c2)cs1	–
161	CSc1sc(C(=N)N)cc1-c1nc(-c2ccc(Cl)c([N+](=O)[O-])c2)cs1	–
982	CSc1sc(C(=N)N)cc1-c1nc(-c2ccccc2)c(-c2ccccc2)s1	–
> 28	CSc1sc(C(=N)N)cc1-c1cccc(-c2ccccc2)n1	–
270	CSc1sc(C(=N)N)cc1-c1nc(-c2ccc([N+](=O)[O-])cc2)cs1	–
120	CSc1sc(C(=N)N)cc1-c1nc(-c2ccnc(Cl)c2)cs1	–
108	CSc1sc(C(=N)N)cc1-c1nc(-c2ccc3c(c2)OCCO3)cs1	–
145	CSc1sc(C(=N)N)cc1-c1nc(-c2ccc3c(c2)CCCC3)cs1	–
94	CSc1sc(C(=N)N)cc1-c1nc(-c2ccc(NS(C)(=O)=O)cc2)cs1	–

Ki [1] [µM]	Structure (SMILES)	other results
546	CSc1sc(C(=N)N)cc1-c1nc(-c2cccc(C)c2)cs1	–
99	CSc1sc(C(=N)N)cc1-c1nc(-c2ccc(Cl)cc2)cs1	–
130	COc1ccccc1-c1csc(-c2cc(C(=N)N)sc2SC)n1	–
164	CSc1sc(C(=N)N)cc1-c1nc(-c2cnccc2Cl)cs1	–
115	COc1cccc(-c2csc(-c3cc(C(=N)N)sc3SC)n2)c1	Ki (Serine protease 1): 0.86 µM; Ki (Prothrombin): > 30 µM; Ki [2]: 1.9 µM; Ki (Plasminogen): 6.9 µM
44	CSc1sc(C(=N)N)cc1-c1nc(-c2ccc(O)c(C)c2)cs1	–
44	COC(=O)COc1cccc(-c2csc(-c3cc(C(=N)N)sc3SC)n2)c1	–
178	CSc1sc(C(=N)N)cc1-c1nc(COc2ccccc2)cs1	–
152	COc1ccc(-c2csc(-c3cc(C(=N)N)sc3SC)n2)c(OC)c1	–
815	CSc1sc(C(=N)N)cc1-c1nc(C)cs1	–
272	CSc1sc(C(=N)N)cc1-c1nc(-c2ccc(S(=O)(=O)Nc3ccc(C)cc3)cc2)cs1	–
287	CSc1sc(C(=N)N)cc1-c1nc(-c2ccc(Cl)cc2Cl)cs1	–
86	CSc1sc(C(=N)N)cc1-c1nc(-c2cccc(O)c2)cs1	Ki (Serine protease 1): 0.93 µM; Ki (Prothrombin): > 25 µM; Ki [2]: 1.7 µM; Ki (Plasminogen): 32.1 µM
305	CSc1sc(C(=N)N)cc1-c1nc(-c2ccccc2)c(C)s1	–
442	CSc1sc(C(=N)N)cc1-c1nc(-c2cccc(Br)c2)cs1	–
641	CSc1sc(C(=N)N)cc1-c1nc(C2CCCCC2)cs1	–
94	CSc1sc(C(=N)N)cc1-c1nc(-c2ccc(C)cc2)cs1	–
6	CSc1ccc(C(=N)N)s1	–

Structure (SMILES)	Ki [1] [µM]	other results
CSc1sc(C(=N)N)cc1-c1ccccc1	0.6	–
